In patent US8101761B2, “(E)-N-{3-[1-(8-fluoro-11H-10-OXA-1-AZA-dibenzo [A,D] cyclohepten-5ylidene)-propyl]-phenyl}-methanesulfonamide as glucocorticoid receptor modulator for the treatment of rheumatoid arthritis” (Eli Lilly and Company, priority 2008, dated 2012):
Read-outs that look alike come from different tables or passages of the source.

Test system: carrageenan-induced paw edema in male Sprague-Dawley rats
Assay: Carrageenan-induced paw edema (CPE) model
Assay type: in vivo
Conditions: rat, oral gavage 2 h before carrageenan, paws taken 3 h after, mean of 5 determinations
Excerpt: Carrageenans are a group of polysaccharides which can induce an acute inflammatory response in animals. Cardinal signs of inflammation including edema, hyperalgesia and erythema are developed in the injection site immediately following injection. The CPE model is a recognized model of inflammation and can be used to evaluate the anti-inflammatory effects of glucocorticoid receptor ligands.
To evaluate the anti-inflammatory effects of Compound (I), the compound is formulated in a vehicle comprising 0.5% carboxymethyl cellulose and 0.25% Tween 80 then administered orally via gavage to male Sprague-Dawley rats (180-200 g). For comparison, prednisolone may be administered orally in the same vehicle. Two hours later, 1% carrageenan in 50 μl of 0.9% pyrogen free saline is injected into the subplantar regions of the right hind paw. Rats are euthanized by CO2 at 3 hours after the carrageenan injection. Paws are removed then weighed using a microbalance. Paws are then dissected by making several cuts on the paw surface and immediately immersing into liquid nitrogen until frozen. Frozen paws are then centrifuged to extract the exudates. Exudate levels of IL-1β, a cytokine generated during the inflammatory response is then measured by ELISA according to manufacturers instructions. Total paw protein is also measured using a protein assay kit and the absolute level of IL-1β is normalized to yield a concentration value of ng IL-1β/mg total protein.

**Q.** `C[C@]12C=CC(=O)C=C1CC[C@@H]1[C@@H]2[C@@H](O)C[C@@]2(C)[C@H]1CC[C@]2(O)C(=O)CO` [prednisolone, reference compound] was tested. Which ED50 (read-out: ED50, inhibition of carrageenan induced paw weight gain) did it give?
**A.** The ED50 was roughly 6.6 mg/kg.

**Q.** What about the ED50 (read-out: ED50, reduction of paw exudate levels of IL-1β) of the same compound?
**A.** Its ED50 is less than 1 mg/kg.
